Assay results reported in the supplement of paper PMC10307832.

Legend:
[1] = compound: C1=CC2=C(C=C(C(=C2N=C1)O)N=NC3=CC4=C(C=C3)C=C(C=C4)S(=O)(=O)O)S(=O)(=O)O; experiment: relative viability (nuclei count vs DMSO), 5 days (fraction); higher = more cells survive
In short: (§1)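 For viability, nuclei in each treated well were divided by nuclei in vehicle wells and the median across plates was taken. Lung cancer cell lines in 1536-well plates were pinned with five library-drug doses (not always all listed) spaced by √10, cultured 5 days without medium change, and imaged at 4× after Hoechst staining, with plates passing only at control CV below 25% and at least one doubling.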

AT-7519 = compound: O=C(NC1CCNCC1)c1n[nH]cc1NC(=O)c1c(Cl)cccc1Cl [AT-7519]; experiment: as above
In short: as §1

Cell Line	relative viability ([1]; 0.08 µM)	relative viability ([1]; 0.253 µM)	relative viability ([1]; 0.8 µM)	relative viability ([1]; 2.53 µM)	relative viability ([1]; 8 µM)	relative viability (AT-7519; 0.01 µM)	relative viability (AT-7519; 0.03162 µM)	relative viability (AT-7519; 0.3162 µM)	relative viability (AT-7519; 1 µM)
201T	1.01	0.995	0.985	1.03	0.982	1.02	0.988	1.04	1.11
A549	1.1	0.986	0.926	1	0.884	0.978	0.903	0.931	0.792
A-427	1.05	0.971	0.936	0.963	0.842	1.11	1.02	0.944	0.723
ABC-1	0.923	0.743	0.744	1.08	0.776	1.1	0.876	0.787	0.699
BEN	0.976	0.933	0.895	0.986	0.777	0.917	0.876	1.15	0.887
CAL-12T	1.08	0.986	0.928	1.09	0.932	0.98	1.06	0.552	0.256
COR-L23	1.09	1.04	1	1.05	0.946	1.12	0.865	0.936	0.424
COR-L 105	0.988	0.78	0.95	1.06	0.865	0.924	0.933	0.769	0.54
Calu-6	1	1.02	0.962	1.01	1.01	1.06	0.943	1.11	0.593
ChaGo-K-1	1.03	0.905	0.937	1.02	0.901	1.01	0.926	0.996	0.942
EBC-1	1.04	0.933	0.941	0.99	1.07	0.934	0.885	0.923	0.645
EKVX	0.973	0.918	0.905	1.01	0.864	0.948	0.911	0.939	1.03
EMC-BAC-2	0.916	1.02	1.03	1.01	0.93	0.954	0.934	0.996	1.11
EPLC-272H	1.03	0.901	0.949	0.879	0.743	0.889	0.84	0.844	0.761
H3255	1.01	0.965	1.01	1.03	1.04	1.04	0.96	0.969	0.838
HARA	1.03	0.871	0.995	0.953	0.806	0.86	0.897	1.07	0.892
HCC-15	1.14	1	1.03	0.97	0.963	1.03	0.911	0.897	0.754
HCC-44	1.02	0.959	0.952	1.05	1	0.992	0.99	1.05	1.05
HCC-78	1.03	0.957	0.894	1.03	0.95	0.999	0.93	1.06	1.05
HCC-366	1.04	0.964	0.993	0.997	0.897	1.06	1.03	0.993	0.926
HCC-827	1.08	0.997	1.01	1.02	1.04	1.04	1.04	1.02	0.997
HOP-62	1.06	0.931	0.964	1.03	1.04	0.949	0.949	1.04	1.04
IA-LM	1.02	0.954	0.785	0.896	0.934	0.912	0.874	0.856	0.854
LC-2-ad	1.02	0.902	0.978	0.995	0.945	0.996	0.99	1.01	0.909
LCLC-97TM1	1.16	0.873	0.833	0.926	0.999	0.918	0.892	0.844	0.47

Cell Line	relative viability ([1]; 0.08 µM)	relative viability ([1]; 0.253 µM)	relative viability ([1]; 0.8 µM)	relative viability ([1]; 2.53 µM)	relative viability ([1]; 8 µM)	relative viability (AT-7519; 0.01 µM)	relative viability (AT-7519; 0.03162 µM)	relative viability (AT-7519; 0.3162 µM)	relative viability (AT-7519; 1 µM)
LCLC-103H	1.02	0.998	0.976	1.02	1.03	1.08	0.983	1.01	1.07
LK-2	1.05	0.973	0.876	0.911	0.797	0.961	0.934	0.857	0.682
LOU-NH91	0.964	0.978	0.99	0.989	0.948	0.93	0.963	0.956	0.933
LU99A	1.02	0.936	0.901	0.95	0.948	1.02	0.857	0.826	0.974
LXF-289	1.09	0.958	1.01	1.04	0.955	1	0.938	1.01	1.02
NCI-H23	0.912	0.873	0.932	1.04	0.9	0.856	0.858	0.912	0.616
NCI-H322M	1.07	0.93	0.901	0.877	0.951	0.913	0.947	0.773	0.798
NCI-H358	1.08	0.978	0.841	0.943	1.01	0.889	0.86	0.85	0.31
NCI-H441	1.16	0.942	0.898	1.06	0.947	1.03	1.02	1.05	0.523
NCI-H460	1.07	0.992	0.977	0.987	0.945	1	0.89	0.982	0.601
NCI-H520	1.09	0.926	1.02	0.985	1.08	1.06	0.925	0.915	0.695
NCI-H522	0.965	0.984	0.872	1.02	0.774	0.814	0.933	0.873	0.897
NCI-H596	1.06	0.987	0.982	1.03	1.01	0.928	0.925	1.04	0.912
NCI-H647	0.877	0.932	0.881	1.08	0.971	1	0.923	0.886	0.72
NCI-H650	0.883	0.937	0.86	0.969	0.671	1.02	0.871	1.01	1.03
NCI-H661	1.02	1	0.969	1.01	0.967	1.04	0.874	1.02	0.648
NCI-H727	1.15	0.921	0.923	0.958	0.941	0.954	0.802	0.849	0.447
NCI-H838	1	0.966	0.924	0.992	0.997	0.925	0.876	0.891	0.615
NCI-H1299	1.02	1.01	1	1.04	1	1.05	1.02	1.02	1.18
NCI-H1355	1.08	0.982	0.965	0.993	0.856	1.01	0.961	0.992	1.05
NCI-H1395	0.9	0.939	0.843	0.976	0.899	0.934	0.998	0.816	0.665
NCI-H1437	1	1	0.988	1.05	0.912	0.985	0.99	0.999	0.879
NCI-H1563	1.09	0.96	0.995	0.949	0.878	0.955	0.934	1.02	0.998
NCI-H1623	0.925	0.995	0.953	1.06	0.852	0.982	0.934	1.05	0.773
NCI-H1648	0.747	0.816	0.677	0.682	1.04	0.877		0.832	0.711

Cell Line	relative viability ([1]; 0.08 µM)	relative viability ([1]; 0.253 µM)	relative viability ([1]; 0.8 µM)	relative viability ([1]; 2.53 µM)	relative viability ([1]; 8 µM)	relative viability (AT-7519; 0.01 µM)	relative viability (AT-7519; 0.03162 µM)	relative viability (AT-7519; 0.3162 µM)	relative viability (AT-7519; 1 µM)
NCI-H1650	0.893	0.93	0.875	0.993	0.773	0.985	1.03	0.88	0.328
NCI-H1651	1.03	0.966	0.961	0.991	0.931	0.959	0.897	1.02	0.997
NCI-H1666	1.04	1.03	0.991	0.966	1.02	0.948	0.906	0.99	0.752
NCI-H1703	0.942	0.772	0.99	0.884	1.04	0.865	0.845	0.866	0.261
NCI-H1734	1.12	0.981	0.951	0.92	0.996	1.06	0.918	0.782	0.562
NCI-H1755	1.03	0.962	0.949	1.01	1.03	1.01	0.994	1.02	0.963
NCI-H1792	0.951	0.858	0.877	0.852	0.974	0.664	0.768	0.874	0.989
NCI-H1793	1.1	0.967	0.859	1.02	0.843	0.854	0.9	0.905	0.832
NCI-H1915	1.02	0.968	0.989	0.987	0.966	1.03	0.982	0.881	0.84
NCI-H1944	1.03	0.901	0.944	0.955	0.835	0.909	0.898	0.921	0.87
NCI-H1975	1.01	0.948	0.989	1.01	0.924	1.04	0.849	0.879	0.442
NCI-H1993	1.08	0.965	0.875	0.955	0.944	0.857	0.855	0.776	0.528
NCI-H2009	1.02	0.987	1.03	1.01	0.922	1.06	0.969	1.02	0.78
NCI-H2023	1.02	0.903	0.987	1.1	0.989	1.06	0.873	0.848	0.547
NCI-H2085	1.1	0.997	0.946	1.04	1.03	1.01	1	1.01	1.01
NCI-H2087	0.942	0.999	0.941	0.934	0.869	1.03	0.874	0.991	0.4
NCI-H2126	1.05	0.996	0.908	1.04	0.964	1.01	1	0.94	0.875
NCI-H2170	1.07	0.988	0.97	1.02	0.932	0.967	0.964	1.02	0.991
NCI-H2228	1.31	1.03	0.907	1.01	0.957	1.15	0.926	0.936	0.591
NCI-H2342	0.991	0.989	0.841	1.04	0.876	0.909	0.96	0.906	0.92
NCI-H2347	1.06	0.941	0.974	1.02	0.98	1.05	0.958	1.01	0.762
NCI-H2405	0.972	0.919	0.984	1.02	0.877	0.987	0.973	1.01	0.812
NCI-H3122	1.03	0.976	0.98	0.999	0.956	1.09	1	1.01	0.699
PC-3 [JPC-3]	1.04	1.03	1.04	1.06	0.997	1.01	1.02	1.01	1.03
